Experimental data published in patent US9663510B2, “Substituted triazolopyridines and their use as TTK inhibitors” (Bayer Intellectual Property GmbH, priority 2011, dated 2017).
Read-outs that look alike come from different tables or passages of the source.

Experiments:
[1] = Metabolic stability in vitro, human liver microsomes (calculation of Fmax); format: in vitro ADME; settings: maximal oral bioavailability calculated from microsomal half-life, 1 μM
Procedure: (§1) The metabolic stability of test compounds in vitro was determined by incubating them at 1 μM with a suspension liver microsomes in 100 mM phosphate buffer, pH7.4 (NaH2PO4×H2O+Na2HPO4×2H2O) at a protein concentration of 0.5 mg/mL and at 37° C. The reaction was activated by adding a co-factor mix containing 1.2 mg NADP, 3 IU glucose-6-phosphate dehydrogenase, 14.6 mg glucose-6-phosphate and 4.9 mg MgCl2 in phosphate buffer, pH 7.4. Organic solvent in the incubations was limited to <0.2% dimethylsulfoxide (DMSO) and <1% methanol. During incubation, the microsomal suspensions were continuously shaken and aliquots were taken at 2, 8, 16, 30, 45 and 60 min, to which equal volumes of cold methanol were immediately added. Samples were frozen at −20° C. over night, subsequently centrifuged for 15 minutes at 3000 rpm and the supernatant was analyzed with an Agilent 1200 HPLC-system with LCMS/MS detection.
(§2) The half-life of a test compound was determined from the concentration-time plot. From the half-life the intrinsic clearances were calculated. Together with the additional parameters liver blood flow, specific liver weight and microsomal protein content the hepatic in vivo blood clearance (CL) and the maximal oral bioavailability (Fmax) were calculated for the different species. The following parameter values were used: Liver blood flow—1.3 L/h/kg (human), 2.1 L/h/kg (dog), 4.2 L/h/kg (rat); specific liver weight—21 g/kg (human), 39 g/kg (dog), 32 g/kg (rat); microsomal protein content—40 mg/g.
(§3) With the described assay only phase-I metabolism of microsomes is reflected, e.g. typically oxidoreductive reactions by cytochrome P450 enzymes and flavin mono-oxygenases (FMO) and hydrolytic reactions by esterases (esters and amides).

[2] = Metabolic stability in vitro, rat liver microsomes (calculation of Fmax); format: in vitro ADME; settings: maximal oral bioavailability calculated from microsomal half-life, 1 μM
Procedure: as §1, §2, §3

human kinase Mps-1 = human kinase Mps-1 (Homo sapiens (Human), UniProt P33981); assay: Mps-1 kinase assay (TR-FRET); format: biochemical
human kinase Mps-1, sequence (P33981 whole entry): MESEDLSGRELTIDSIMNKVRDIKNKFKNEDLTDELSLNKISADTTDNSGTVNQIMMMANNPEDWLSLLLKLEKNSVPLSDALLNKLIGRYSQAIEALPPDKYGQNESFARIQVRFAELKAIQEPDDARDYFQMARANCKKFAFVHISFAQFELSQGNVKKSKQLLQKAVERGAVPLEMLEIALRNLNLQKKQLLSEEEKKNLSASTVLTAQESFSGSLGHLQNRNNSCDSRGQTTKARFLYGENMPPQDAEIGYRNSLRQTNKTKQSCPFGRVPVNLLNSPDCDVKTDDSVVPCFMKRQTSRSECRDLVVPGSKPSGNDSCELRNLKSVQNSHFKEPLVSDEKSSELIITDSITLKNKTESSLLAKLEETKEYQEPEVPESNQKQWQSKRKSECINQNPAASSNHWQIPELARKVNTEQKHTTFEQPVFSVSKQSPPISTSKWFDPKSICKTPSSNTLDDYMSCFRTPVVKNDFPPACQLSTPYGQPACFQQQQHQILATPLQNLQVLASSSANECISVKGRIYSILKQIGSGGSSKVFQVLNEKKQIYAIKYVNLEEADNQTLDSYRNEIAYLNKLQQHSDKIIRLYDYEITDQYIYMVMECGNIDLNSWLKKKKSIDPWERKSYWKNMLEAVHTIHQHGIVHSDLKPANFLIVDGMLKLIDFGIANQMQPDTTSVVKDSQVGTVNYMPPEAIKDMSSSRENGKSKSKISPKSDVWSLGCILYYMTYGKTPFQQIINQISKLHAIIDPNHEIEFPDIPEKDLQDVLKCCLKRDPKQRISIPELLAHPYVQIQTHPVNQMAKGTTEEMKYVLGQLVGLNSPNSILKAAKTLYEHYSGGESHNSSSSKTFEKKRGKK

[3] = test system: HeLa human cervical tumor cells; assay: HeLa cell proliferation assay (crystal violet); format: cell-based; settings: 96 h, 4 days incubation, read-out: Inhibition of cell proliferation, cell Line: HeLa IC50
[4] = Metabolic stability in vitro, dog liver microsomes (calculation of Fmax); format: in vitro ADME; settings: maximal oral bioavailability calculated from microsomal half-life, 1 μM
Procedure: as §1, §2, §3

[5] = read-out: Mps-1 Inhibition, IC50 (Assay with 10 μM ATP), 10 μM ATP
[6] = read-out: Mps-1 Inhibition, IC50 (Assay with 2 mM ATP), 2 mM ATP

Row | Structure (SMILES) | Human liver microsomes; Fmax [%] [1] [%] | Rat liver microsomes; Fmax [%] [2] [%] | IC50 (human kinase Mps-1; 2 mM ATP) [nM] | IC50 (human kinase Mps-1; [5]) [nM] | IC50 [3] [nM] | Dog liver microsomes; Fmax [%] [4] [%] | IC50 (human kinase Mps-1; [6]) [nM]
1 | CS(=O)(=O)c1ccc(Nc2nc3ccc(-c4ccc(NC(=O)C(CO)c5ccc(F)cc5)cc4)cn3n2)c(OCC(F)(F)F)c1 (single isomer, unassigned) [Example01.10, (−)-2-(4-fluorophenyl)-3-hydroxy-N-[4-(2-{[4-(methylsulfonyl)-2-(2,2,2-tri-fluoroethoxy)phenyl]amino}[1,2,4]triazolo[1,5-a]pyridin-6-yl)phenyl]-propanamide] | >95 | >95 | 1.1 | < 1 | < 200 | >95 | –
2 | COc1cc(N2CCOC2=O)ccc1Nc1nc2ccc(-c3ccc(NC(=O)[C@H](C)c4ccc(F)cc4)cc3)cn2n1 [Example 01.09, (2R)-2-(4-fluorophenyl)-N-[4-(2-{[2-methoxy-4-(2-oxo-1,3-oxazolidin-3-yl)phenyl]amino}[1,2,4]triazolo[1,5-a]pyridin-6-yl)phenyl]propanamide] | 49 | 58 | – | – | – | 48 | –
3 | COc1cc(C(=O)N2CCC2)ccc1Nc1nc2ccc(-c3ccc(NC(=O)[C@H](C)c4ccc(F)cc4)cc3)cn2n1 [Example01.08, (2R)—N-[4-(2-{[4-(azetidin-1-ylcarbonyl)-2-methoxyphenyl]amino}[1,2,4]-triazolo[1,5-a]pyridin-6-yl)phenyl]-2-(4-fluorophenyl)propanamide] | 62 | 74 | – | < 1 | – | 75 | < 1
4 | C[C@@H](C(=O)Nc1ccc(-c2ccc3nc(Nc4ccc(C(N)=O)cc4OCC(F)(F)F)nn3c2)cc1)c1ccc(F)cc1 [Example01.06, 4-{[6-(4-{[(2R)-2-(4-fluorophenyl)propanoyl]amino}phenyl)[1,2,4]triazolo-[1,5-a]pyridin-2-yl]amino}-3-(2,2,2-trifluoroethoxyl)benzamide] | >95 | 94 | 1.5 | < 1 | < 100 | 81 | –
5 | COc1cc(S(C)(=O)=O)ccc1Nc1nc2ccc(-c3ccc(NC(=O)[C@H](N)c4ccc(F)cc4)cc3)cn2n1 [Example01.11, (2R)-2-amino-2-(4-fluorophenyl)-N-[4-(2-{[2-methoxy-4-(methylsulfonyl)-phenyl]amino}[1,2,4]triazolo[1,5-a]pyridin-6-yl)phenyl]ethanamide] | 76 | 92 | 9 | < 1 | < 600 | 75 | –
6 | CCOc1cc(S(C)(=O)=O)ccc1Nc1nc2ccc(-c3ccc(NC(=O)[C@H](C)c4ccc(F)cc4)cc3)cn2n1 [Example01.02, (2R)—N-[4-(2-{[2-ethoxy-4-(methylsulfonyl)phenyl]amino}[1,2,4]-triazolo[1,5-a]pyridin-6-yl)phenyl]-2-(4-fluorophenyl)propanamide] | 68 | 86 | – | < 1 | < 600 | 73 | < 1
7 | COc1cc(C(N)=O)ccc1Nc1nc2ccc(-c3ccc(NC(=O)[C@H](C)c4ccc(F)cc4)cc3)cn2n1 [Example01.05] | >95 | >95 | 1.2 | < 1 | < 100 | 89 | –
8 | COc1cc(S(C)(=O)=O)ccc1Nc1nc2ccc(-c3ccc(NC(=O)[C@H](C)c4ccc(F)cc4)cc3)cn2n1 [Example 01.01, (2R)-2-(4-fluorophenyl)-N-[4-(2-{[2-methoxy-4-(methylsulfonyl)phenyl]-amino}[1,2,4]triazolo[1,5-a]pyridin-6-yl)phenyl]propanamide] | 92 | 92 | – | – | < 400 | 64 | –

Continued, values first:

Row | Human liver microsomes; Fmax [%] [1] [%] | Rat liver microsomes; Fmax [%] [2] [%] | IC50 (human kinase Mps-1; 2 mM ATP) [nM] | IC50 (human kinase Mps-1; [5]) [nM] | IC50 [3] [nM] | Dog liver microsomes; Fmax [%] [4] [%] | IC50 (human kinase Mps-1; [6]) [nM] | Structure (SMILES)
9 | >95 | 83 | – | – | – | 86 | – | COc1cc(C(=O)N2CC(F)C2)ccc1Nc1nc2ccc(-c3ccc(NC(=O)[C@H](C)c4ccc(F)cc4)cc3)cn2n1 [Example 01.07, (2R)-N-{4-[2-({4-[(3-fluoroazetidin-1-yl)carbonyl]-2-methoxyphenyl}amino)-[1,2,4]triazolo[1,5-a]pyridin-6-yl]phenyl}-2-(4-fluorophenyl)propanamide]
10 | >95 | 87 | 2 | < 1 | < 400 | 94 | – | COc1cc(C(=O)NCC(F)(F)F)ccc1Nc1nc2ccc(-c3ccc(NC(=O)[C@H](C)c4ccc(F)cc4)cc3)cn2n1 [Example 01.04, 4-{[6-(4-{[(2R)-2-(4-fluorophenyl)propanoyl]amino}phenyl)[1,2,4]-triazolo[1,5-a]pyridin-2-yl]amino}-3-methoxy-N-(2,2,2-trifluoro-ethyl)benzamide]
11 | >95 | 93 | – | < 1 | – | 55 | < 1 | C[C@@H](C(=O)Nc1ccc(-c2ccc3nc(Nc4ccc(S(C)(=O)=O)cc4OCC(F)(F)F)nn3c2)cc1)c1ccc(F)cc1 [Example 01.03, (2R)-2-(4-fluorophenyl)-N-[4-(2-{[4-(methylsulfonyl)-2-(2,2,2-trifluoro-ethoxy)phenyl]amino}[1,2,4]triazolo[1,5-a]pyridin-6-yl)phenyl]-propanamide]
